Results on one compound are retold here after US5780509A, “Compound bearing two, 2,6-diiodophenol-4-YL groups and diagnostic drug for iodine allergy” (Muromachi Kagaku Kogyo Kaisha, Ltd., priority 1994, dated 1998).

Data set [1] has as its system guinea-pigs. Description: Passive cutaneous anaphylaxis (PCA) reaction, sensitization antigenicity. It counts as in vivo, guinea-pig. An excerpt:
(§1) Sensitization antigenicity of iodinated tyrosine derivative was studied.
(§2) Trityrosine was selected as the tyrosine derivative, and this was iodinated to obtain iodinated trityrosine. Guinea-pigs were sensitized with iodinated trityrosine. As a positive control, employed was iodinated guinea-pig serum albumin (GSA). Guinea-pigs of the control group were sensitized with iodinated GSA. Sensitization was examined by active systemic anaphylaxis (ASA) reaction and passive cutaneous anaphylaxis (PCA) reaction.
(§3) Sensitization: Each of iodinated trityrosine and iodinated GSA was emulsified with complete Freund's adjuvant, and injected subcutaneously to the back of animals at a dose of 10 mg/animal (2.5 mg, respectively, at 4 sites), 3 times at intervals of 2 weeks.
PCA reaction: The blood was taken from each animal, and the serum was separated one week after the last sensitization injection. The serum was diluted fivefold with physiological saline, and injected intradermally to normal guinea-pigs at a dose of 0.1 ml/site. PCA reaction was provoked by intravenous injection of iodinated GSA (1 mg/animal) and Evans blue solution to the recipient animals 4 hours after the intradermal serum injection. PCA reaction was judged as being positive when the diameter of blue spot at the site of intradermal injection was 5 mm or larger.

The test system of data set [2] is guinea-pigs immunized with iodine (iodine-sensitized) and non-sensitized guinea-pigs. Description: Active cutaneous anaphylaxis (ACA) reaction, elicitation antigenicity. It counts as in vivo, guinea-pig (male SPF, Hartley strain). The arrangement: key to Mean diameter of blue spots, non-sensitized guinea-pig / Mean diameter of blue spots, iodine-sensitized guinea pig (second value) / Mean diameter of blue spots, iodine-sensitized guinea pig (first value): --: Negative response; **: Weak response. Conditions: for Mean diameter of blue spots, iodine-sensitized guinea pig (first value) / Mean diameter of blue spots, iodine-sensitized guinea pig (second value) / Mean diameter of blue spots, non-sensitized guinea-pig: 30 min. From the text:
The elicitation antigenicity of iodinated tyrosine derivatives was studied in the bases of the active cutaneous anaphylaxis (ACA) reaction in guinea-pigs immunized with iodine.
Animals: Male SPF guinea-pigs of Hartley strain, weighing 300~350 g were purchased from Charles River Japan Co., Ltd. These were immunized after having been acclimated for one week.
Sensitization: A solution of iodine potassium iodide (Wako Junyaku, special grade reagent) and complete Freund's adjuvant (Difco) were mixed in equal amounts to form an emulsion. This was administered subcutaneously into the back of guinea-pigs at a dose of 2 mg of iodine per animal 3 times at intervals of 2 weeks. Active cutaneous anaphylaxis (ACA) was elicited 2 weeks after the last sensitization injection.
ACA Induction: 2% Evans blue physiological solution (0.5 ml/animal) was administered intravenously to guinea-pigs, and immediately thereafter 0.1 ml of an elicitation antigen was administered intradermally into the back, and after 30 min. the existence of pigment leakage at the intradermally injected sites was observed.
Elicitation antigen: Iodinated dityrosine, iodinated trityrosine, iodinated dityrosylphenylalanine were administered intracutaneously at 0.1 ml/site. Guinea-pig serum albumin (fraction V: Sigma) was iodinated and used as a positive control. Corresponding noniodinated ones were also administered intradermally as negative controls.
Iodination reaction: To a 50 mM boric acid buffer solution (pH 9.5) of 10 mg/ml of dityrosine, trityrosine, or dityrosylphenylalanine (all produced by Sigma Co., Ltd.) or guinea-pig serum albumin (abbreviated hereafter as GSA), a 0.5M solution of iodine was added at a ratio of 10:1, and these were reacted at 37 C. overnight. The excess iodine in the reaction mixture was reduced by adding sodium thiosulfate (Nakarai Chemical Co., Ltd.). For purification of the iodinated tyrosine derivatives, the reaction mixture was extracted with ethyl acetate and dried with magnesium sulfate, and hexane was added to obtain crystals. For purification of the iodinated GSA, the reaction mixture was purified by passing it through a Sephadex G25 column.

In data set [3] the test system is anti-iodine antibody. Description: ELISA inhibition potency (OD50) on anti-iodine antibody. Particulars: serial twofold dilution, equal volume of 50-fold diluted anti-iodine antiserum; read-out: Inhibitory activity (OD50): concentration which decreased optical density of ELISA to a half of the control. The format is binding, guinea-pig. Here is the method: Guinea-pigs were immunized with iodine by injecting subcutaneously 1 mg of iodine containing potassium iodide solution treated with complete Freund's adjuvant seven times at intervals of 2 weeks, and anti-iodine antiserum was obtained from these animals. Antibody titers of the sera were determined by enzyme linked immunosorbent assay (ELISA) using 96 well microplate coated with iodinated guinea pig serum albumin (I-GSA) ELISA inhibition activities of the following compounds were studied. The compounds used were potassium iodide, tyrosine and its derivatives such as L-tyrosine, monoiodo-L-tyrosine, diiodotyrosine, hexaiodo-L-trityrosine, L-hexatyrosine and 12 iodo-L-hexatyrosine, and iodinated X-ray contrast media such as amidotrizoic acid, iodamide, ioxaglic acid, iohexol, iopamidol and iomeprol.
ELISA inhibition study was performed as follows. Antibody concentration of anti-iodine antiserum gave the maximum optical density in ELISA till one hundredfold serum dilution. Accordingly, seven steps of twofold serial dilution of anti-iodine antiserum, starting from 50-fold serum dilution, were made with physiological saline as a diluent. To each of the serially diluted sera, were added equal volume of solution containing each of the test compounds described above. After overnight incubation at 4 C, antibody activity was determined by ELISA. Phosphate buffered physiological saline (PBS) was used as a control. ELISA inhibitory activities of the test compounds were determined at the serum dilution which gave about 50% of the maximum optical density (OD415nm =2.6) of ELISA of control at serum dilution of one hundredfold. The inhibitory activity was calculated by the following calculation formula.
In the next, ELISA inhibition study was undertaken to determine the potency of ELISA inhibitory activity of active compounds. […] The inhibitory activity was expressed as the concentration which decreased optical density of ELISA to a half (OD50) of the control.

In data set [4] the test system is guinea-pigs. Description: Active systemic anaphylaxis (ASA) reaction, sensitization antigenicity. It counts as in vivo, guinea-pig.
Description: as §1, §2, §3
ASA reaction: Iodinated GSA (1 mg/animal) was injected intravenously to the animals one week after the last sensitization injection, by which ASA reaction was elicited. The animals which indicated symptoms of anaphylactic shock were judged as being positive.

Non-standard residues stand in square brackets, D forms with d. Residues, ends and D or L forms follow the SMILES beside them. Tyr(3,5-I2) = N[C@@H](Cc1cc(I)c(O)c(I)c1)C(=O)O

In the case of `N[C@@H](Cc1cc(I)c(O)c(I)c1)C(=O)N[C@@H](Cc1cc(I)c(O)c(I)c1)C(=O)N[C@@H](Cc1cc(I)c(O)c(I)c1)C(=O)O` [Iodinated trityrosine, hexaiodo-L-trityrosine] (H-[Tyr(3,5-I2)]-[Tyr(3,5-I2)]-[Tyr(3,5-I2)]-OH), the “PCA reaction (in words)” value in data set [1] (sensitized group) is listed as “negative in all animals”. Moreover, in data set [1] (sensitized guinea-pigs, from ASA and PCA reactions), the “Anti-iodine antibody production / sensitization antigenicity (in words)” value is reported as “no anti-iodine antibody was produced”. The “PCA reaction: number of positive animal/number of sensitized animal” value in data set [1] (serum diluted fivefold, 0.1 ml/site, iodinated GSA 1 mg/animal i.v., positive = blue spot 5 mm or larger) is given as 0/5. Also, the entries for the “Mean diameter of blue spots, iodine-sensitized guinea pig (first value)” value in data set [2] (1 μg/site intradermal), in data set [2] (10 μg/site intradermal) and in data set [2] (100 μg/site intradermal) were 6.0 mm, 8.5 mm and 11.0 mm, respectively. For the same compound, the “Mean diameter of blue spots, iodine-sensitized guinea pig (second value)” value is “--” in data set [2] (1 μg/site intradermal), 4.0 mm in data set [2] (10 μg/site intradermal) and 6.0 mm in data set [2] (100 μg/site intradermal). The “Mean diameter of blue spots, non-sensitized guinea-pig” value in data set [2] (1 μg/site intradermal), in data set [2] (10 μg/site intradermal) and in data set [2] (100 μg/site intradermal) was “--” in each case. The “ACA reaction (in words)” value in data set [2] (intradermal injection, guinea-pigs sensitized with iodine) was “ACA reaction was elicited”. For the same compound, in data set [3], the IC50 is 125 µM. Further, the “ASA reaction: number of positive animal/number of sensitized animal” value in data set [4] (sensitized 10 mg/animal s.c. 3 times, elicited with iodinated GSA 1 mg/animal i.v.) is 0/5. Also, in data set [4] (sensitized group), the “ASA reaction (in words)” value is listed as “negative in all animals”.
